Test results taken from patent publication US6800642B2, “Antipsychotic aminomethyl derivatives of 7,8-dihydro-2,6,9-trioxa-3-aza-cyclopenta[a]naphthalene” (Wyeth, priority 2001, dated 2004).
Where a name gives a salt, the structure may show the parent alone.

Tests used:
[1] = target: T1, dopamine D2 receptor (Rattus norvegicus, UniProt P61169); experiment: Dopamine D2 receptor affinity, 3H-quinpirole binding in homogenized rat striatal brain tissue
T1 construct: from tissue; host or cells: rat striatal brain tissue homogenate
Experimental: Affinity for the dopamine D2 receptor was established by a modification of the standard experimental test procedure of Seemen and Schaus, European Journal of Pharmacology 203:105-109, 1991, wherein homogenized rat striatal brain tissue is incubated with ^3H-quinpirole and various concentrations of test compound, filtered and washed and counted in a Betaplate scintillation counter.

[2] = system: dopamine receptors; experiment: Reduction of mouse locomotor activity (functional antagonism of dopamine receptors in vivo); details: sc; male CF-1 mice; horizontal activity counts 10 to 20 minutes after dosing
Experimental: The antipsychotic activity of the compounds of the invention was established by a determination of functional antagonism of dopamine receptors in vivo, specifically the compounds' ability to reduce mouse locomotor activity according to the method of Martin and Bendensky, J. Pharmacol. Exp. Therap. 229:706-711, 1984, in which mice (male, CF-1, Charles River, 20-30 g) were injected with vehicle or various doses of each drug and locomotor activity was measured for 30 minutes using automated infrared activity monitors (Omnitech—8×8 inch open field) located in a darkened room. ED50's were calculated from the horizontal activity counts collected from 10 to 20 minutes after dosing using a nonlinear regression analysis with inverse prediction.

T1 sequence (P61169 whole entry): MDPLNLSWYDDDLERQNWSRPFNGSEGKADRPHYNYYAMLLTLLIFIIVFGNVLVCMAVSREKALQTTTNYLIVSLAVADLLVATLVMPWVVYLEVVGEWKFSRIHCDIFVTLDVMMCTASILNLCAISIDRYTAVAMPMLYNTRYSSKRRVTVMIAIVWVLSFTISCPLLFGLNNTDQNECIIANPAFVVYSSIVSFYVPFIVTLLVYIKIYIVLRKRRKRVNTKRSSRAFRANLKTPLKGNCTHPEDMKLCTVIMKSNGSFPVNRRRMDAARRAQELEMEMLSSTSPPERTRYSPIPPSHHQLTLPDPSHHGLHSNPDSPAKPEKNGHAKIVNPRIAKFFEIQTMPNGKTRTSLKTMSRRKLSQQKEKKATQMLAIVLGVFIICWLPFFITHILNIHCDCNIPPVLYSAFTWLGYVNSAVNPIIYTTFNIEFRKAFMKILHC

| Structure (SMILES) | melting point [°C] | IC50 [1] [nM] | ED50 for reduction of mouse locomotor activity [2] [mg/kg] |
| --- | --- | --- | --- |
| c1ccc(CCCCNCC2COc3ccc4nocc4c3O2)cc1 (stereo not drawn) (as salt: fumarate) (hydrate or solvate) [Example 7, (7,8-Dihydro-2,6,9-trioxa-3-aza-cyclopenta[a]naphthalen-8-ylmethyl)-(4-phenyl-butyl)-amine] | 172 to 174 | – | – |
| C1=C(c2c[nH]c3ccccc23)CCN(CC2COc3ccc4nocc4c3O2)C1 (stereo not drawn) [Example 3, 8-[4-(1H-Indol-3-yl)-3,6-dihydro-2H-pyridin-1-ylmethyl]-7,8-dihydro-2,6,9-trioxa-3-aza-cyclopenta[a]naphthalene] | 110 | 350 | ≥ 50 |
| c1ccc2c(c1)CCN(CC1COc3ccc4nocc4c3O1)C2 (stereo not drawn) [Example 2, 8-(3,4-Dihydro-1H-isoquinolin-2-ylmethyl)-7,8-dihydro-2,6,9-trioxa-3-aza-cyclopenta[a]naphthalene] | – | 58.8 | – |
| c1ccc2c(CCCNCC3COc4ccc5nocc5c4O3)c[nH]c2c1 (stereo not drawn) [Example 6, 2,3-Dihydro-N-[3-(1H-indol-3-yl)propyl]-1,4-dioxino[2,3-e][2,1]benzisoxazole-2-methanamine] | – | 4.8 | – |
| Fc1ccc2[nH]cc(CC3CCN(CC4COc5ccc6nocc6c5O4)CC3)c2c1 (stereo not drawn) (as salt: oxalate) [Example 4, 8-[4-(5-Fluoro-1H-indol-3-ylmethyl)-piperidin-1-ylmethyl]-7,8-dihydro-2,6,9-trioxa-3-aza-cyclopenta[a]naphthalene] | 202 to 205 | – | – |
| c1ccc(CNCC2COc3ccc4nocc4c3O2)cc1 (stereo not drawn) (as salt: fumarate) [Example 1, Benzyl-(-7,8-dihydro-2,6,9-trioxa-3-aza-cyclopenta[a]naphthalen-8-ylmethyl)-amine] | 180 | – | – |
| c1ccc2c(CCCNCC3COc4ccc5nocc5c4O3)c[nH]c2c1 (stereo not drawn) (as salt: oxalate) [Example 6, 2,3-Dihydro-N-[3-(1H-indol-3-yl)propyl]-1,4-dioxino[2,3-e][2,1]benzisoxazole-2-methanamine] | 230 | – | – |
| c1ccc2c(c1)CCN(CC1COc3ccc4nocc4c3O1)C2 (stereo not drawn) (as salt: fumarate) [Example 2, 8-(3,4-Dihydro-1H-isoquinolin-2-ylmethyl)-7,8-dihydro-2,6,9-trioxa-3-aza-cyclopenta[a]naphthalene] | 175 to 176 | – | – |
| c1ccc(CCCCNCC2COc3ccc4nocc4c3O2)cc1 (stereo not drawn) [Example 7, (7,8-Dihydro-2,6,9-trioxa-3-aza-cyclopenta[a]naphthalen-8-ylmethyl)-(4-phenyl-butyl)-amine] | – | 4.1 | – |

Second part, led by results:

| melting point [°C] | IC50 [1] [nM] | Structure (SMILES) | ED50 for reduction of mouse locomotor activity [2] [mg/kg] |
| --- | --- | --- | --- |
| – | 8.05 | c1ccc(CNCC2COc3ccc4nocc4c3O2)cc1 (stereo not drawn) [Example 1, Benzyl-(-7,8-dihydro-2,6,9-trioxa-3-aza-cyclopenta[a]naphthalen-8-ylmethyl)-amine] | – |
| 204 to 206 | – | O=C(c1ccc(F)cc1)C1CCN(CC2COc3ccc4nocc4c3O2)CC1 (stereo not drawn) (as salt: fumarate) [Example 5, [1-(7,8-Dihydro-2,6,9-trioxa-3-aza-cyclopenta[a]naphthalen-8-ylmethyl)-piperidin-4-yl]-(4-fluoro-phenyl)-methanone] | – |
| – | 32.4 | O=C(c1ccc(F)cc1)C1CCN(CC2COc3ccc4nocc4c3O2)CC1 (stereo not drawn) [Example 5, [1-(7,8-Dihydro-2,6,9-trioxa-3-aza-cyclopenta[a]naphthalen-8-ylmethyl)-piperidin-4-yl]-(4-fluoro-phenyl)-methanone] | – |
| – | 36.7 | Fc1ccc2[nH]cc(CC3CCN(CC4COc5ccc6nocc6c5O4)CC3)c2c1 (stereo not drawn) [Example 4, 8-[4-(5-Fluoro-1H-indol-3-ylmethyl)-piperidin-1-ylmethyl]-7,8-dihydro-2,6,9-trioxa-3-aza-cyclopenta[a]naphthalene] | – |
